Measured values published in US20230190779A1, “Agent for Improving Symptoms of Menopause” (Kao Corporation, priority 2020, published 2023).

Target: T1, human TRPV4 (Homo sapiens, UniProt Q9HBA0)
T1 construct: expressed in transfected cells; host or cells: HeLa cells (human cervical cancer-derived, ATCC), transient transfection
Assay: Suppression of TRPV4 activity: intracellular calcium ion influx in human TRPV4 expression HeLa cells stimulated with GSK1016790a
Type: cell-based
Settings: GSK + solvent = 100%, n = 3, Mean ± SE
Method: Using a primer set consisting of oligonucleotides represented by the base sequences described below which was synthesized with reference to the published human TRPV4 gene sequence using cDNA obtained by reverse transcribing the total RNA extracted from human duodenum-derived cells (Hutu-80 cells, purchased from American Type Culture Collection) as a template, the polymerase chain reaction (PCR) was carried out under the following conditions.
The obtained PCR product was purified using a High Pure PCR Product Purification Kit (manufactured by Roche). Using the purified PCR product and pcDNA3.1 Directional TOPO Expression Kit (manufactured by Invitrogen), a human TRPV4 gene expression vector was produced.
A human cervical cancer-derived cell line (HeLa cells, purchased from American Type Culture Collection) was cultured using a DMEM/F12 medium containing 10% fetal bovine serum (manufactured by Invitrogen). HeLa cells were seeded in a 10 cm cell culture dish at 2×10^5 cells/dish. After culturing for 2 days, the cells were transfected with the human TRPV4 gene expression vector (7.7 lag) produced in the above (1) using TransIT-HeLaMONSTER Transfection Kit (manufactured by Mirus) and cultured for 1 day.
The cells were detached using Detachin (manufactured. by Genlantis Inc.), seeded in a DMEM/F12 medium containing 10% fetal bovine serum on a 96 well Optical bottom plate (manufactured by Nunc A/S) at a cell density of 2.0×10^4 cells/90 μL/well, and further cultured for 1 day.
Measurement of the intracellular calcium ion influx activity was carried out using Calcium Kit II-fluo 4 (trade name, DOJTNDO). 90 μL/well of a loading buffer containing Fluo4-AM was added to the human TRPV4 expression cells produced in the above (2), and incubated at 37° C. for 1 hour. Thereafter, the fluorescence intensity (excitation wavelength: 488 nm, fluorescence wavelength: 524 nm) was measured at 37° C. every two seconds using a fluorescence plate reader (FDSS/μCFLL Functional Drug Screening System C13299, manufactured by Hamamatsu Photonics K. K.). After 30 seconds from the start of the measurement, each of GSK1016790a (manufactured by Sigma) which is the TRPV4 agonist, and the cassis extract, or D3R, C3R, D3G, or C3G prepared in the above Production Example as the sample was diluted with a dilution buffer of the measurement kit, 20 μL/well of a mixed solution thereof (mixed immediately before addition) was added, and the change of fluorescence intensity was measured every two seconds until 300 seconds. […]
The TRPV4 activity of the sample was calculated by the following equation assuming that the calcium ion influx rate by the treatment of GSK1016790a which is the TRPV4 agonist was 100%. […]

T1 sequence (Q9HBA0 whole entry): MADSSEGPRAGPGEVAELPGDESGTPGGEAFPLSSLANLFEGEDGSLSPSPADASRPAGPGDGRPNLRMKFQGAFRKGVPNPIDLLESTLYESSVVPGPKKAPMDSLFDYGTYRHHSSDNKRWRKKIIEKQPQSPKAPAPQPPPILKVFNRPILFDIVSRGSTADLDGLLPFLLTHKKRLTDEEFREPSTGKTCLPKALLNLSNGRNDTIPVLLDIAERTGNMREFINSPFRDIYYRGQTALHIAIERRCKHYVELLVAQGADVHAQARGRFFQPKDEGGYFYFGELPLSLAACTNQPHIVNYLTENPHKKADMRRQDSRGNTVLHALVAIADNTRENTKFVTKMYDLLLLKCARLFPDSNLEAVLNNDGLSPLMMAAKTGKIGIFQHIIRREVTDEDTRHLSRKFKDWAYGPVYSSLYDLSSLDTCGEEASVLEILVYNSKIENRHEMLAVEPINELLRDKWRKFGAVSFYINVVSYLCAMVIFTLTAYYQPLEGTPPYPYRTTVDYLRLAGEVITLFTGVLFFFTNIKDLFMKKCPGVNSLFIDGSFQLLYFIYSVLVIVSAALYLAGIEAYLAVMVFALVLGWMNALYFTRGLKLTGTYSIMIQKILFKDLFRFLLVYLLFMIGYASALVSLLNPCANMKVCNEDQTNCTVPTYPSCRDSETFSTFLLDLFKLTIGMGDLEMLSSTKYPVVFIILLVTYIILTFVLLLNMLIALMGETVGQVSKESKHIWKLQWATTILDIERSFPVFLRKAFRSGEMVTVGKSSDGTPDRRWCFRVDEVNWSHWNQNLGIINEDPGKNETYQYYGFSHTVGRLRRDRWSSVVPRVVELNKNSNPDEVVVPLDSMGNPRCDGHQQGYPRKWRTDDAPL

| Compound | Intracellular Ca^2+ increase rate (%) (sample 0.05 μg/mL + GSK 10 nM) | Intracellular Ca^2+ increase rate (%) (sample 0.5 μg/mL + GSK 10 nM) | Intracellular Ca^2+ increase rate (%) (sample 0.14 μg/mL + GSK 10 nM) | Intracellular Ca^2+ increase rate (%) (sample 1.4 μg/mL + GSK 10 nM) |
| --- | --- | --- | --- | --- |
| OC[C@H]1O[C@@H](Oc2cc3c(O)cc(O)cc3[o+]c2-c2ccc(O)c(O)c2)[C@H](O)[C@@H](O)[C@@H]1O [C3G, cyanidin-3-glucoside, reference compound] | 94.4 ± 3.1% | 101.5 ± 4.1% | – | – |
| OC[C@H]1O[C@@H](Oc2cc3c(O)cc(O)cc3[o+]c2-c2cc(O)c(O)c(O)c2)[C@H](O)[C@@H](O)[C@@H]1O [D3G, delphinidin-3-glucoside, reference compound] | – | – | 101.4 ± 2.7% | 100.4 ± 3.2% |
